Source: patent US4264497A, “1,5-Benzothiazepine compounds” (Maruko Seiyaku Co., Ltd., priority 1978, dated 1981)
Counter-ions that a name gives are not always drawn.

Key:
[1] = test system: Pylorus Ligature induced ulcer; experiment: Anti-ulcer activity, pylorus ligature ulcer, rats; format: in vivo; conditions: s.c., 20 mg/kg
Gastric secretion = Gastric secretion inhibitory activity, observed in the anti-ulcer test using aspirin; format: in vivo; conditions: observed simultaneously in anti-ulcer test using aspirin (rats, s.c., 5 mg/kg)
mice [2] = experiment: Acute toxicity, overall comparison; format: in vivo; conditions: in words, vs Glycopyrrolate
mice [3] = experiment: Acute toxicity LD50, oral, in mice; conditions: oral
[4] = test system: Aspirin-Stress induced ulcer; experiment: Anti-ulcer activity, aspirin-stress induced ulcer, mice; format: in vivo; conditions: s.c., 5 mg/kg
mice [5] = experiment: Acute toxicity LD50, intravenous, in mice; conditions: intravenous
Stress induced ulcer = experiment: Anti-ulcer activity, stress induced ulcer, mice; format: in vivo; conditions: p.o., 5 mg/kg
[6] = test system: Indomethacin induced ulcer; experiment: Anti-ulcer activity, indomethacin induced ulcer, rats; format: in vivo; conditions: p.o.
ulcer = experiment: Anti-ulcer activity, overall statement; format: in vivo; conditions: in words, vs Glycopyrrolate
Aspirin induced ulcer = experiment: Anti-ulcer activity, aspirin induced ulcer, rats; format: in vivo; conditions: s.c., 5 mg/kg
Corediastasis = Corediastasis (side effect), intraperitoneal; format: in vivo
Stress ulcer = experiment: Anti-ulcer activity (Stress), relative to racemate; format: in vivo; conditions: for Anti-ulcer Activity (Stress): relative, racemic mixture = 1
[7] = Acute toxicity LD50, oral, in mice; conditions: mouse, in vivo, po
[8] = Acute toxicity LD50, intravenous, in mice; conditions: mouse, in vivo, iv
Desalivation = Desalivation activity (side effect), relative to racemate; format: in vivo; conditions: for Desalivation Activity: relative, racemic mixture = 1, side effect
Anticholinergic activity = Anticholinergic activity (relative to racemate); format: in vivo

Row | SMILES | Anti-ulcer Activity, % Inhibitory [1] | Gastric secretion inhibitory activity, % Inhibitory (Gastric secretion) | Anti-ulcer Activity, % Inhibitory [4] | Anti-ulcer Activity, % Inhibitory (Stress induced ulcer) | Anti-ulcer Activity, % Inhibitory (Aspirin induced ulcer) | corediastasis ED20 (Corediastasis; in vivo, ip) | Anti-ulcer Activity (Stress) (Stress ulcer) | LD50 [7] | LD50 [8] | Desalivation Activity (Desalivation) | further results
1 | CN1CCN(C[C@H]2C(=O)Nc3ccccc3S[C@H]2c2ccccc2)CC1 (relative stereo) [Compound A] | 100.0% | 90% | 51.8% | 91.6% | 100.0% | 0.31 mg/kg | – | – | – | – | degree of acute toxicity compared with Glycopyrrolate (mice [2]): approximately the same degree of acute toxicity as Glycopyrrolate; LD50 (in mice), Oral (mice [3]; mice, test compounds A-C): 650 mg/kg; LD50 (in mice), Intravenous (mice [5]; mice, test compounds A-C): 65 mg/kg; Anti-ulcer Activity, % Inhibitory ([6]; A: 5 mg/kg): 99.0%; anti-ulcer activity compared with Glycopyrrolate (ulcer): equal or higher anti-ulcer activity
2 | CN1CCN(C[C@H]2C(=O)Nc3ccccc3S[C@H]2c2ccccc2)CC1 (relative stereo) [Racemic Mixture, (±)-cis-2,3-dihydro-3-[(4-methylpiperazinyl)methyl]-2-phenyl-1,5-benzothiazepin-4(5H)-one] | – | – | – | – | – | – | 1 | 650 mg/kg | 65 mg/kg | 1 | –
3 | CN1CCN(C[C@H]2C(=O)Nc3ccccc3S[C@H]2c2ccccc2)CC1 (single isomer, unassigned) [(-) Form, cis-(-)-2,3-dihydro-3-[(4-methylpiperazinyl)methyl]-2-phenyl-1,5-benzothiazepin-4(5H)-one] | – | – | – | – | – | – | 4 | 870 mg/kg | 160 mg/kg | 0.6 | anti-ulcer activity relative to the corresponding racemate (Stress ulcer; (-) form vs racemate): 4 times; acute toxicity by oral administration, degree relative to racemate (mice [3]; (-) form vs racemate): 3/4; acute toxicity by intravenous administration, degree relative to racemate (mice [5]; (-) form vs racemate): 2/5; desalivation activity as a side-effect, degree relative to racemate (Desalivation; (-) form vs racemate): about 1/2; anticholinergic activity relative to the corresponding racemate (Anticholinergic activity; (-) form vs racemate): 2 times; Anticholinergic Activity (Anticholinergic activity; relative, racemic mixture = 1): 2
4 | C[N+]1(C)CCC(OC(=O)C(O)(c2ccccc2)C2CCCC2)C1 (centres unmarked) [Compound B, Glycopyrrolate] | 100.0% | 90% | 47.6% | 81.9% | 100.0% | 0.037 mg/kg | – | – | – | – | Anti-ulcer Activity, % Inhibitory ([6]; B: 20 mg/kg): 88.6%
5 | CN1[C@@H]2CC[C@H]1CC(OC(=O)C(CO)c1ccccc1)C2 (some centres unmarked) [Compound C, Atropin Sulfate] | 13.0% | 70% | 48.0% | 82.3% | 79.3% | – | – | – | – | – | corediastasis ED20 (Corediastasis; intraperitoneal administration): 0.076 mg/kg
